The nature of this data set: in vivo. Particulars: mouse, iv.

Experimental findings from patent publication US4378348A (priority 1979, dated 1983) are described below.

By LD50 is commonly meant the dose at which mortality reaches 50%.

Description: The substance of this invention was intravenously administered to male mice of DD strain weighing 20 to 21 g and checked for acute toxicity.

For the compound `CN[C@H](CC(C)C)C(=O)N[C@H]1C(=O)N[C@@H](CC(N)=O)C(=O)N[C@H]2C(=O)N[C@H]3C(=O)N[C@H](C(=O)N[C@H](C(=O)O)c4cc(O)cc(O)c4-c4cc3ccc4O)[C@H](O)c3ccc(c(Cl)c3)Oc3cc2cc(c3O[C@@H]2O[C@H](CO)[C@@H](O)[C@H](O)[C@H]2O[C@H]2C[C@](C)(N)[C@H](O)[C@H](C)O2)Oc2ccc(cc2Cl)[C@H]1O` [vancomycin], the 50% lethal dose (LD50) is 400 to 500 mg/kg.
